Test results: paper PMC3794980, “Identification of Conserved and HLA Promiscuous DENV3 T-Cell Epitopes” (PLoS Neglected Tropical Diseases, 2013)
Like-named read-outs stand apart in the source and are kept apart here.

Key:
Test in all cases: biochemical
Format in all cases: binding
[1] = molecular target: DRB1*0401 (Homo sapiens, UniProt P01903+P01911, A100K/A169T/F76Y/I96L/K127E/L162R/M171V/N62H/P40V/Q125Y/R42H/S133A/S149N/S66Y/V115G/V209L/W38E)
[2] = molecular target: DRB1*0405 (Homo sapiens, UniProt P01903+P01911, A100R/A169T/D86S/F76Y/I96L/K127E/L162R/M171V/N62H/P40V/Q125Y/R42H/S133A/S149N/S66Y/V115G/V209L/W38E)
[3] = molecular target: DRB1*0701 (Homo sapiens, UniProt P01903+P01911, A100R/A102G/A103Q/D57E/D86V/E43K/F76Y/K127E/L162R/M171V/P40G/Q125H/Q99D/R33Q/R42Y/R54Q/S133A/S66F/T210M/V115G/Y107V/Y59L/Y89S)
[4] = molecular target: DRB1*0901 (Homo sapiens, UniProt P01903+P01911, A100R/A103E/D57H/D86V/F55Y/F60I/F76Y/I96F/K127E/L162R/M171V/P40D/Q125H/Q99R/R33Q/R42F/S133A/S66N/T210M/V115G/W38K/Y107V/Y59G/Y89S)
[5] = molecular target: DRB1*1302 (Homo sapiens, UniProt P01903+P01911, A100E/A169T/K41T/L162R/M171V/P40S/Q125H/Q178H/Q39Y/Q99D/R42S/S66N/T262R/V115G/W38E/Y61H)
Sequence of DRB1*1302 (P01903 26-254 limits assumed, other chains not shown): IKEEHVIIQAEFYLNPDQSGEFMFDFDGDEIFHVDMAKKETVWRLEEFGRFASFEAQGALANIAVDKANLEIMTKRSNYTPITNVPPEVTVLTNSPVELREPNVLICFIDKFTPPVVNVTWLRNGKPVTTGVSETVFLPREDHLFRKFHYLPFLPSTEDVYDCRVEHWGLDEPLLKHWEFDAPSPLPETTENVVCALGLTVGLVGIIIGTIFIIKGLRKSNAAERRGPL

[6] = molecular target: DRB5*0101 (Homo sapiens, UniProt P01903+Q30154)
[7] = molecular target: DRB1*1101 (Homo sapiens, UniProt P01903+P01911, A100R/A169T/A87E/I96F/K41T/L162R/M171V/P40S/Q125H/Q178H/Q39Y/Q99D/R42S/S66Y/T262R/V115G/W38E)
Sequence of DRB1*1101 (P01903 26-254, other chains not shown): as the sequence (P01903 26-254 limits assumed, other chains not shown) above

[8] = molecular target: DRB1*0101 (Homo sapiens, UniProt P01903+P01911, A100R/D57E/F55L/F60I/F76Y/I96L/L162R/M171V/P40L/Q125E/R42F/V115G/Y59C)
[9] = molecular target: DRB1*0802 (Homo sapiens, UniProt P01903+P01911, A100R/A103L/A169T/F76Y/H45Y/I96F/K41T/L162R/M171V/P40S/Q125H/Q178H/Q39Y/Q99D/R218S/R42G/S66Y/V115G/W38E)
[10] = molecular target: DRB1*1501 (Homo sapiens, UniProt P01903+P01911)
[11] = molecular target: DRB1*0404 (Homo sapiens, UniProt P01903+P01911, A100R/A169T/F76Y/I96L/K127E/L162R/M171V/N62H/P40V/Q125Y/R42H/S133A/S149N/S66Y/V209L/W38E)
[12] = molecular target: DRB1*0301 (Homo sapiens, UniProt P01903+P01911, A100K/A102G/A103R/A169T/F55Y/I96L/K41T/L162R/M171V/P40S/Q125H/Q178H/Q39Y/R42S/S66N/T106N/T262R/W38E/Y61H)
Sequence of DRB1*0301 (P01903 26-254, other chains not shown): as the sequence (P01903 26-254 limits assumed, other chains not shown) above

[13] = molecular target: DRB4*0101 (Homo sapiens, UniProt P01903+P13762, G164S)
[14] = molecular target: DRB3*0101 (Homo sapiens, UniProt P01903+P79483)
[15] = competitive inhibition of radiolabeled standard peptide, '-' distinct from ND, read-out: Binding Affinity (nM) DRB1*0901
[16] = competitive inhibition of radiolabeled standard peptide, '-' distinct from ND, read-out: Binding Affinity (nM) DRB1*1302
[17] = competitive inhibition of radiolabeled standard peptide, DRB1*0901, read-out: Binding Affinity (nM) DRB1*0901
[18] = competitive inhibition of radiolabeled standard peptide, DRB1*1302, read-out: Binding Affinity (nM) DRB1*1302

| Compound | IC50 [1] | IC50 [2] | IC50 [3] | IC50 [4] | IC50 [5] | IC50 [6] | IC50 [7] | IC50 [8] | IC50 [9] | IC50 [10] | IC50 [11] | IC50 [12] | IC50 [13] | IC50 [4, 15] | IC50 [5, 16] | IC50 [14] | IC50 [4, 17] | IC50 [5, 18] |
| --- | --- | --- | --- | --- | --- | --- | --- | --- | --- | --- | --- | --- | --- | --- | --- | --- | --- | --- |
| CC[C@H](C)[C@H](NC(=O)[C@H](C)NC(=O)[C@H](CC(N)=O)NC(=O)[C@H](CO)NC(=O)[C@H](C)NC(=O)[C@H](CC(C)C)NC(=O)[C@H](CCCNC(=N)N)NC(=O)[C@H](CC(C)C)NC(=O)[C@H](CC(=O)O)NC(=O)[C@H](CCCNC(=N)N)NC(=O)[C@H](CCCNC(=N)N)NC(=O)[C@H](Cc1c[nH]cn1)NC(=O)[C@H](Cc1ccccc1)NC(=O)[C@H](Cc1ccc(O)cc1)NC(=O)[C@@H](N)CCSC)C(=O)O [NS5 765-779] | 4.7 nM | 18 nM | 18 nM | 61 nM | 4.9 nM | 726 nM | 17 nM | 41 nM | 7.8 nM | 118 nM | 34 nM | 1280 nM |  |  |  |  |  |  |
| CC(C)C[C@H](NC(=O)[C@@H](NC(=O)CNC(=O)[C@H](CC(N)=O)NC(=O)[C@H](CO)NC(=O)[C@H](Cc1c[nH]c2ccccc12)NC(=O)[C@H](CC(C)C)NC(=O)[C@@H](NC(=O)[C@H](Cc1c[nH]cn1)NC(=O)[C@H](CO)NC(=O)[C@H](CCCCN)NC(=O)[C@@H]1CCCN1C(=O)[C@@H](N)Cc1c[nH]c2ccccc12)[C@@H](C)O)C(C)C)C(=O)N[C@@H](CCC(=O)O)C(=O)N[C@@H](CO)C(=O)O [NS1 225-239] | 322 nM | 4420 nM | 5690 nM |  |  |  | 12900 nM | 3920 nM | 4830 nM | 4120 nM | 3930 nM | 520 nM | 6540 nM | 9390 nM | 59 nM |  |  |  |
| CC[C@H](C)[C@H](NC(=O)[C@H](CCCCN)NC(=O)[C@H](C)NC(=O)[C@H](CCCCN)NC(=O)CNC(=O)[C@H](Cc1c[nH]c2ccccc12)NC(=O)[C@@H](N)[C@@H](C)O)C(=O)N[C@H](C(=O)N[C@H](C(=O)N[C@@H](C)C(=O)N[C@@H](CCC(=O)O)C(=O)N[C@H](C(=O)N[C@@H](CCC(N)=O)C(=O)N[C@@H](CC(N)=O)C(=O)N[C@@H](CO)C(=O)O)[C@@H](C)O)[C@@H](C)O)C(C)C [NS1 117-131] | 28 nM | 285 nM | 6690 nM |  |  | 3930 nM | 18200 nM | 1090 nM |  | 3750 nM | 695 nM | 4160 nM |  | 2630 nM | 1240 nM | 534 nM |  |  |
| CC[C@H](C)[C@H](NC(=O)[C@H](C)NC(=O)[C@H](CC(N)=O)NC(=O)[C@H](CO)NC(=O)[C@H](C)NC(=O)[C@H](CC(C)C)NC(=O)[C@H](CCCNC(=N)N)NC(=O)[C@H](CC(C)C)NC(=O)[C@H](CC(=O)O)NC(=O)[C@H](CCCNC(=N)N)NC(=O)[C@@H](N)CCCNC(=N)N)C(=O)N[C@@H](CS)C(=O)N[C@@H](CO)C(=O)N[C@@H](C)C(=O)N[C@H](C(=O)N1CCC[C@H]1C(=O)N[C@H](C(=O)O)C(C)C)C(C)C [NS5 769-785] | 3.6 nM | 16 nM | 121 nM |  |  |  | 79 nM | 28 nM | 28 nM | 21 nM | 93 nM | 409 nM | 212 nM |  |  |  | 61 nM | 4.5 nM |
| CC[C@H](C)[C@H](NC(=O)[C@H](Cc1ccc(O)cc1)NC(=O)CNC(=O)[C@H](CC(C)C)NC(=O)[C@H](CCCCN)NC(=O)[C@H](Cc1c[nH]cn1)NC(=O)[C@H](CC(C)C)NC(=O)CNC(=O)[C@H](CCC(=O)O)NC(=O)CNC(=O)[C@H](CCC(=O)O)NC(=O)[C@@H](NC(=O)CNC(=O)[C@H](CO)NC(=O)[C@H](Cc1ccc(O)cc1)NC(=O)[C@H](CO)NC(=O)[C@@H](N)CC(N)=O)C(C)C)C(=O)O [NS5 501-517] | 74 nM | 2400 nM | 18 nM |  |  | 1120 nM | 8180 nM | 7 nM | 836 nM | 3050 nM | 4370 nM | 4420 nM |  |  |  | 2960 nM |  | 4990 nM |
| CC[C@H](C)[C@H](NC(=O)[C@@H]1CCCN1C(=O)[C@H](CC(C)C)NC(=O)CNC(=O)[C@@H](N)CCCCN)C(=O)N[C@@H](CCCNC(=N)N)C(=O)N[C@@H](Cc1ccc(O)cc1)C(=O)N[C@@H](CCC(N)=O)C(=O)N[C@H](C(=O)N[C@H](C(=O)N[C@@H](C)C(=O)N[C@H](C(=O)N[C@@H](CCCCN)C(=O)N[C@@H](CO)C(=O)N[C@@H](CCC(=O)O)C(=O)O)[C@@H](C)O)[C@@H](C)O)[C@@H](C)O [NS3 237-251] | 13 nM |  | 2990 nM |  |  | 13 nM | 807 nM | 110 nM | 36 nM | 638 nM | 310 nM | 1820 nM | 5.5 nM | 928 nM | 2620 nM | 19000 nM |  |  |
| CC[C@H](C)[C@H](NC(=O)[C@H](CCC(=O)O)NC(=O)CNC(=O)[C@@H](NC(=O)[C@@H](NC(=O)[C@@H](NC(=O)[C@H](CCC(N)=O)NC(=O)[C@H](Cc1ccccc1)NC(=O)[C@@H](NC(=O)CNC(=O)[C@@H]1CCCN1C(=O)[C@H](CCSC)NC(=O)[C@@H](NC(=O)[C@H](CCC(N)=O)NC(=O)[C@@H](N)Cc1ccccc1)[C@@H](C)O)[C@@H](C)O)[C@@H](C)O)[C@@H](C)O)[C@@H](C)O)C(=O)O [NS3 109-123] | 222 nM |  | 1020 nM | 1850 nM | 7040 nM | 2750 nM | 3860 nM | 148 nM | 557 nM | 2180 nM | 961 nM | 16400 nM |  |  |  | 4140 nM |  |  |
| CSCC[C@H](NC(=O)[C@H](CCC(N)=O)NC(=O)[C@H](C)NC(=O)[C@H](Cc1ccc(O)cc1)NC(=O)[C@H](C)NC(=O)[C@H](CCCCN)NC(=O)CNC(=O)[C@H](CC(C)C)NC(=O)[C@H](CS)NC(=O)[C@H](C)NC(=O)[C@@H](NC(=O)[C@H](CCC(=O)O)NC(=O)[C@H](CCCNC(=N)N)NC(=O)[C@H](CC(C)C)NC(=O)[C@@H](N)CO)[C@@H](C)O)C(=O)N[C@@H](Cc1c[nH]c2ccccc12)C(=O)N[C@H](C(=O)O)[C@@H](C)O [NS5 747-763] |  | 39 nM | 2980 nM |  |  |  | 80 nM | 54 nM | 551 nM | 167 nM | 111 nM | 5740 nM | 4660 nM |  |  | 8310 nM | 393 nM |  |
| CC[C@H](C)[C@H](NC(=O)[C@H](C)NC(=O)[C@H](C)NC(=O)[C@H](C)NC(=O)[C@@H](N)CCC(=O)O)C(=O)N[C@@H](Cc1ccccc1)C(=O)N[C@@H](CCSC)C(=O)N[C@H](C(=O)N[C@@H](C)C(=O)N[C@H](C(=O)N1CCC[C@H]1C(=O)N1CCC[C@H]1C(=O)NCC(=O)N[C@H](C(=O)N[C@@H](C)C(=O)O)[C@@H](C)O)[C@@H](C)O)[C@@H](C)O [NS3 309-323] | 2.4 nM | 32 nM | 48 nM | 129 nM | 2640 nM | 2520 nM | 93 nM | 27 nM | 31 nM | 363 nM | 350 nM |  | 9.2 nM |  |  | 11700 nM |  |  |
